Source: patent publication US10179914B2, “CDC25A inhibitor for the treatment of drug resistant cancer or for the prevention of tumor relapse” (INSERM (INSTITUT NATIONAL DE LA SANTÉ ET DE LA RECHERCHE …, priority 2014, dated 2019)

What was measured:
[1] = test system: HL-60 cells (FLT3 wild type); assay: Cell proliferation, trypan blue counting, HL-60; type: cell-based, human
Procedure: (a) MV4-11 and MOLM-14 FLT3-ITD positive cells, KG1, HL-60 and TF-1 FLT3 wild type cells, and K562 FLT3 negative cells were cultured in the presence of the CDC25 inhibitor IRC-083864 (200 nM). Cells were harvested each day and counted after trypan blue coloration. The graph represents three independent experiments.
Cell lines and reagents. Human acute myeloid leukemia cell lines MOLM-14 (Matsuo Y et al, Leukemia 1997) (kindly provided by Martin Carroll, University of Pennsylvania, Philadelphia, Pa., USA) MV4-11, K562 (ACC-102 and ACC-10, DSMZ, Braunschweig, Germany) and FLT3-ITD-expressing murine BaF3 cells were cultured in RPMI 1640 medium (Gibco, Life Technologies, Carlsbad, Calif., USA) supplemented with 10% fetal bovine serum (Sigma, Saint Louis, Calif., USA). TF-1 (ATCC-CRL2003) cells were cultured in RPMI 1640 medium with 10% fetal bovine serum and GM-CSF 2 ng/ml. Concerning MOLM-14 cell line, the presence of a monoallelic 21 bp FLT3-ITD mutation and of an MLL-containing ins(11; 9)(q23;p22p23) were verified (Hematology laboratory of Toulouse University Hospital, Prof E. Delabesse and Dr I. Luquet). KG1 and HL-60 (ACC-14 and ACC-3, DSMZ) cell lines were grown in Iscove's Modified Dulbecco's Medium (IMDM, Gibco) plus 20% FBS. All cells were grown in the presence of 100 units/ml of penicillin and streptomycin (Invitrogen) at 37° C. and 5% CO2.

[2] = test system: primary AML cells expressing wild-type FLT3; assay: Clonogenic assay, FLT3 wild-type primary AML cells; type: cell-based, human; details: 100 and 200 nM, day 7
Procedure: (c) Primary cells from patients were cultured in semi-solid medium to estimate their clonogenic potential as described in the Methods section, in the presence or the absence of IRC-083864 (100 and 200 nM). 6 FLT3-ITD positive (upper panel) and 4 FLT3-wild type (lower panel) AML primary samples were used for these experiments. Leukemic colonies were scored under an inverted microscope at day 7.
Patient samples. Patient AML samples were obtained after informed consent in accordance with the Declaration of Helsinki and stored at the HIMIP collection. According to the French law, HIMIP collection has been declared to the Ministry of Higher Education and Research (DC 2008-307 collection 1) and obtained a transfer agreement (AC 2008-129) after approbation by ethical committees (Comité de Protection des Personnes Sud-Ouest et Outremer II and APHP ethical committee). Clinical and biological annotations of the samples have been declared to the CNIL (Comité National Informatique et Libertés i.e. Data processing and Liberties National Committee). Frozen cells were thawed in IMDM medium with 20% FBS and immediately processed for treatment. All patients were diagnosed at the Department of Hematology of Toulouse University Hospital.
Clonogenic assay. […] Leukemic colonies were then scored under an inverted microscope.

[3] = test system: C/EBPα Ser21 phosphorylation, c-myc, C/EBPε; assay: Western blot of differentiation markers in MOLM-14; type: cell-based, human; details: MOLM-14, 100 nM
Procedure: (a-b) MOLM-14 and MV4-11 cells were treated for different times with IRC-083864 (100 nM and 200 nM) and the expression of the cell surface markers CD11b, CD14 and CD15 were followed by flow cytometry analysis. (c) MOLM-14 and MV4-11 cells were treated for different times with IRC-083864 (100 nM) and morphological changes were estimated by microscopy after cells were cytospun and stained at days 8 and 13. Original magnification ×100. (d) MOLM-14 cells were treated for different times with IRC-083864 (100 nM) and c-myc expression as well as C/EBPα phosphorylation on serine 21 were analyzed by western blot at day 1, and C/EBPε expression after 6 days of treatment. (e) MOLM-14 cells were transfected with CDC25A shRNA The expression of the cell surface markers CD11b, CD14 and CD15 were followed by flow cytometry analysis at day 3 and 6 (upper panel), and their morphology was analyzed by microscopy after 6 days (lower panel). Original magnification ×100. (f) MOLM-14 cells were transfected with CDC25A siRNA, and their morphology was analyzed by microscopy after 3 days (upper panel). Original magnification ×100. The efficiency of CDC25A siRNA was assessed by western blot analysis (lower panel).
Western blot. 2×10^6 cells were usually lysed in 100 μL of NuPAGE® LDS Sample Buffer (Novex, Life Technologies, Carlsbad, Calif., USA), sonicated for 15 seconds, and boiled for 3 minutes. Proteins were then resolved on NuPAGE® 4-12% Bis-Tris Gels and transferred to nitrocellulose membrane. Saturation of the membrane was done for 1 hour in Tris Buffer Saline with Tween 0.1% (TBS-T) containing 5% non-fat milk or 5% bovine serum albumin. Membranes were blotted with proper antibodies overnight at 4° C., washed thrice with TBS-T, and incubated for 30 minutes with HRP-conjugated secondary antibody (Promega, Madison, Wis., USA). […]

Cdc25C = Cdc25C (Homo sapiens, UniProt P30307); details: cited from earlier work
Chain of Cdc25C (P30307 whole entry): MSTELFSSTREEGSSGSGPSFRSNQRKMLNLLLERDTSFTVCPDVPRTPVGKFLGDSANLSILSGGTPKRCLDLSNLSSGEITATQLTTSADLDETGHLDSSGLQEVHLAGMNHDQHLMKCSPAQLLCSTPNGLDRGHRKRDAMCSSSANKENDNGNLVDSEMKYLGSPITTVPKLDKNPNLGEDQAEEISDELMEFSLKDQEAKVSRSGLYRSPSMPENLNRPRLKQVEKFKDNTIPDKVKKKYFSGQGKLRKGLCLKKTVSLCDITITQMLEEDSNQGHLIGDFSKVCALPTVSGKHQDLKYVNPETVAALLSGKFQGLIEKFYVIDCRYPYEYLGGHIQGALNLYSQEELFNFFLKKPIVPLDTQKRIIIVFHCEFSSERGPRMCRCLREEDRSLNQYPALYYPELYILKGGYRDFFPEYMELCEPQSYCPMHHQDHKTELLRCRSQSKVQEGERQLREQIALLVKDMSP

Cc1nc2c(s1)C(=O)C=C(NCCCN(C)CCCNC1=CC(=O)c3nc(-c4cc(F)ccc4F)oc3C1=O)C2=O [IRC-083864]
proliferation of HL-60 ([1]; 200 nM): did not decrease | proliferation of HL60 upon stimulation by FLT3 ligand ([1]; FLT3 ligand stimulation): had no effect | clonogenic potential of primary cells expressing wild-type FLT3 [2]: not sensitive | C/EBPα phosphorylation on serine 21 ([3]; day 1): dephosphorylation | c-myc expression ([3]; day 1): down-regulation | C/EBPε expression ([3]; day 6): up-regulation | IC50 Cdc25 enzyme type C (Cdc25C): nanomolar range
